We go through 13 molecules from patent US11377441B2, “Covalent inhibitors of KRAS” (Araxes Pharma LLC, priority 2017, dated 2022).

In the experiment the target is T1, KRAS G12C 1-169, his-tagged protein, GDP-loaded (Homo sapiens, UniProt P01116, G12C).
T1 construct: KRAS G12C 1-169, his-tagged protein, GDP-loaded
The experiment can be described thus: Biochemical assay: covalent modification of KRAS G12C measured by mass spectrometry (RapidFire/TOF or Q-Exactive). As to conditions: covalent binding to (modification of) KRAS G12C after a ten minute incubation period. The experiment is classed as binding. The method in brief: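 Intact-mass readout (TOF or Q-Exactive, charge-envelope deconvolution) gives percent covalent adduct from modified and unmodified species. Compound at 10, 30 or 100 μM was incubated at room temperature for 10 min to 24 h with 2 μM or 0.5 μM GDP-bound KRAS G12C 1-169 in Hepes/NaCl/MgCl2 buffer, then acid-quenched.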

Regarding `C=CC(=O)N1CCN(c2nc(N3CC(N(C)C)C3)nc3c(F)c(-c4c(C)ccc5cnn(C)c45)c(Cl)cc23)C[C@H]1C` (atropisomer, axis not shown) [Compound 143, 1-((R)-4-((S)-6-chloro-7-(1,6-dimethyl-1H-indazol-7-yl)-2-(3-(dimethylamino)azetidin-1-yl)-8-fluoroquinazolin-4-yl)-2-methylpiperazin-1-yl)prop-2-en-1-one], the Binding % result is “+ (+ indicates binding activity greater than 0% and up to 50%)”.

Consider `C=CC(=O)N1CCN(c2nc(N3CC(N(C)C)C3)nc3c(F)c(-c4c(C)ccc5cnn(C)c45)c(Cl)cc23)C[C@H]1C` (atropisomer, axis not shown) [Compound 144, 1-((R)-4-((R)-6-chloro-7-(1,6-dimethyl-1H-indazol-7-yl)-2-(3-(dimethylamino)azetidin-1-yl)-8-fluoroquinazolin-4-yl)-2-methylpiperazin-1-yl)prop-2-en-1-one], for which the Binding % entry is “+++ (+++ indicates binding activity greater than 80%)”.

In the case of `C=CC(=O)N1C[C@H](C)N(c2nc(OCCN3CC(F)(F)C3)nc3c(F)c(-c4c(C)ccc5cnn(C)c45)c(Cl)cc23)C[C@H]1C` (atropisomer, axis not shown) [Compound 146, 1-((2R,5S)-4-((S)-6-chloro-2-(2-(3,3-difluoroazetidin-1-yl)ethoxy)-7-(1,6-dimethyl-1H-indazol-7-yl)-8-fluoroquinazolin-4-yl)-2,5-dimethylpiperazin-1-yl)prop-2-en-1-one], the Binding % entry is “+ (+ indicates binding activity greater than 0% and up to 50%)”.

In the case of `C=CC(=O)N1C[C@H](C)N(c2nc(OCCN3CC(F)(F)C3)nc3c(F)c(-c4c(C)ccc5cnn(C)c45)c(Cl)cc23)C[C@H]1C` (atropisomer, axis not shown) [Compound 147, 1-((2R,5S)-4-((R)-6-chloro-2-(2-(3,3-difluoroazetidin-1-yl)ethoxy)-7-(1,6-dimethyl-1H-indazol-7-yl)-8-fluoroquinazolin-4-yl)-2,5-dimethylpiperazin-1-yl)prop-2-en-1-one], the Binding % entry is recorded as “+++ (+++ indicates binding activity greater than 80%)”.

Consider `C=CC(=O)N1C[C@H](C)N(c2nc(N3CC(N(C)C)C3)nc3c(F)c(-c4c(C)ccc5cnn(C6CC6)c45)c(Cl)cc23)C[C@H]1C` (atropisomer, axis not shown) [Compound 149, 1-((2R,5S)-4-((S)-6-chloro-7-(1-cyclopropyl-6-methyl-1H-indazol-7-yl)-2-(3-(dimethylamino)azetidin-1-yl)-8-fluoroquinazolin-4-yl)-2,5-dimethylpiperazin-1-yl)prop-2-en-1-one], for which the Binding % result was “+ (+ indicates binding activity greater than 0% and up to 50%)”.

As for `C=CC(=O)N1C[C@H](C)N(c2nc(N3CC(N(C)C)C3)nc3c(F)c(-c4c(C)ccc5cnn(C6CC6)c45)c(Cl)cc23)C[C@H]1C` (atropisomer, axis not shown) [Compound 150, 1-((2R,5S)-4-((R)-6-chloro-7-(1-cyclopropyl-6-methyl-1H-indazol-7-yl)-2-(3-(dimethylamino)azetidin-1-yl)-8-fluoroquinazolin-4-yl)-2,5-dimethylpiperazin-1-yl)prop-2-en-1-one], the Binding % entry is “+++ (+++ indicates binding activity greater than 80%)”.

As for `C=CC(=O)N1[C@H](C)CN(c2nc(N3CC(N(C)C)C3)nc3c(F)c(-c4c(C)ccc5[nH]nc(C)c45)c(Cl)cc23)C[C@@H]1C` (atropisomer, axis not shown) [Compound 151, 1-((2S,6R)-4-((S)-6-chloro-7-(3,5-dimethyl-1H-indazol-4-yl)-2-(3-(dimethylamino)azetidin-1-yl)-8-fluoroquinazolin-4-yl)-2,6-dimethylpiperazin-1-yl)prop-2-en-1-one], the Binding % entry was “+ (+ indicates binding activity greater than 0% and up to 50%)”.

Take `C=CC(=O)N1[C@H](C)CN(c2nc(N3CC(N(C)C)C3)nc3c(F)c(-c4c(C)ccc5[nH]nc(C)c45)c(Cl)cc23)C[C@@H]1C` (atropisomer, axis not shown) [Compound 152, 1-((2S,6R)-4-((R)-6-chloro-7-(3,5-dimethyl-1H-indazol-4-yl)-2-2(3-(dimethylamino)azetidin-1-yl)-8-fluoroquinazolin-4-yl)-2,6-dimethylpiperazin-1-yl)prop-2-en-1-one]: the Binding % result was “+++ (+++ indicates binding activity greater than 80%)”.

`C=CC(=O)N1C[C@H](C)N(c2nc(OCCCN(C)C)nc3c(F)c(-c4c(C)ccc5cnn(C)c45)c(Cl)cc23)C[C@H]1C` (atropisomer, axis not shown) [Compound 153, 1-((2R,5S)-4-((S)-6-chloro-7-(1,6-dimethyl-1H-indazol-7-yl)-2-(3-(dimethylamino)pro-poxy)-8-fluoroquinazolin-4-yl)-2,5-dimethylpiperazin-1-yl)prop-2-en-1-one]: the Binding % result was “+ (+ indicates binding activity greater than 0% and up to 50%)”.

`C=CC(=O)N1C[C@H](C)N(c2nc(OCCCN(C)C)nc3c(F)c(-c4c(C)ccc5cnn(C)c45)c(Cl)cc23)C[C@H]1C` (atropisomer, axis not shown) [Compound 154, 1-((2R,5S)-4-((R)-6-chloro-7-(1,6-dimethyl-1H-indazol-7-yl)-2-(3-(dimethylamino)pro-poxy)-8-fluoroquinazolin-4-yl)-2,5-dimethylpiperazin-1-yl)prop-2-en-1-one]: the Binding % result is “+++ (+++ indicates binding activity greater than 80%)”.

For `C=CC(=O)N1C[C@H](C)N(c2nc(N3CC(N(C)C)C3)nc3c(F)c(-c4c(F)ccc5cnn(C)c45)c(Cl)cc23)C[C@H]1C` (atropisomer, axis not shown) [Compound 155, 1-((2R,5S)-4-((R)-6-chloro-2-(3-(dimethylamino)azetidin-1-yl)-8-fluoro-7-(6-fluoro-1-methyl-1H-indazol-7-yl)quinazolin-4-yl)-2,5-dimethylpiperazin-1-yl)prop-2-en-1-one], the Binding % result was “+ (+ indicates binding activity greater than 0% and up to 50%)”.

On to `C=CC(=O)N1C[C@H](C)N(c2nc(N3CC(N(C)C)C3)nc3c(F)c(-c4c(F)ccc5cnn(C)c45)c(Cl)cc23)C[C@H]1C` (atropisomer, axis not shown) [Compound 156, 1-((2R,5S)-4-((S)-6-chloro-2-(3-(dimethylamino)azetidin-1-yl)-8-fluoro-7-(6-fluoro-1-methyl-1H-indazol-7-yl)quinazolin-4-yl)-2,5-dimethylpiperazin-1-yl)prop-2-en-1-one], for which the Binding % result was “+++ (+++ indicates binding activity greater than 80%)”.

`C=CC(=O)N1C[C@H](C)N(c2nc(OC3CCN(C(C)C)CC3)nc3c(F)c(-c4c(C)ccc5cnn(C)c45)c(Cl)cc23)C[C@H]1C` (atropisomer, axis not shown) [Compound 166, 1-((2R,5S)-4-((S)-6-chloro-7-(1,6-dimethyl-1H-indazol-7-yl)-8-fluoro-2-(1-isopropylpiperidin-4-yloxy)quinazolin-4-yl)-2,5-dimethylpiperazin-1-yl)prop-2-en-1-one]: the Binding % entry is “+ (+ indicates binding activity greater than 0% and up to 50%)”.
